Reference: PubChem BioAssay (NCI)
Several values for one entry are separate records, joined by “and”; a condition that tells them apart may be missing. Equal entries are not always repeated.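 Protocol summary: plate cells (96-well), add compound at 5 concentrations, incubate 48 h, interpolate endpoints linearly. Here, GI50 denotes the concentration required for 50% inhibition of growth. TGI is the concentration that stops growth completely.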

Experiments:
Assay in all cases: growth of human tumour cells (NCI), 48 h
A549 NSCLC = system: A549 NSCLC
EKVX NSCLC = system: EKVX NSCLC
HCC-2998 colon = system: HCC-2998 colon
IGROV1 ovarian = system: IGROV1 ovarian
K-562 leukemia = system: K-562 leukemia
MCF7 breast = system: MCF7 breast
MOLT-4 leukemia = system: MOLT-4 leukemia
OVCAR-5 ovarian = system: OVCAR-5 ovarian
SF-268 CNS = system: SF-268 CNS
SK-MEL-2 melanoma = system: SK-MEL-2 melanoma
SNB-19 CNS = system: SNB-19 CNS
SW-620 colon = system: SW-620 colon

Compound	TGI (A549 NSCLC)	TGI (EKVX NSCLC)	TGI (HCC-2998 colon) [µM]	TGI (IGROV1 ovarian)	TGI (K-562 leukemia)	TGI (MCF7 breast)	TGI (MOLT-4 leukemia) [µM]	TGI (OVCAR-5 ovarian)	TGI (SF-268 CNS)	TGI (SK-MEL-2 melanoma)	TGI (SNB-19 CNS) [µM]	TGI (SW-620 colon) [µM]	GI50 (EKVX NSCLC) [µM]	GI50 (IGROV1 ovarian) [µM]	GI50 (K-562 leukemia)	GI50 (MCF7 breast)	GI50 (OVCAR-5 ovarian) [µM]	GI50 (SF-268 CNS)	GI50 (SK-MEL-2 melanoma) [µM]
OCC1OC(n2cnc3c2NC=NC[C@H]3O)C(O)C1O (stereo partly drawn)	> 450 µM	> 450 µM	> 450	> 450 µM	> 284 µM	> 450 µM	> 450	> 450 µM	> 450 µM	> 450 µM	> 450	> 450	–	–	–	–	–	–	–
CCOC(=O)c1csc(NC(=O)C(C)N2CCCCC2)n1 (stereo not drawn)	> 100 µM	> 100 µM	> 100	> 100 µM	> 100 µM	> 100 µM	> 100	> 100 µM	–	> 100 µM	> 100	> 100	–	–	–	–	–	–	–
CCCCN1C=CN2c3nc4cc(C)c(C)cc4n3C(C(=O)OC)=C(C(=O)OC)C12 (stereo not drawn)	> 100 µM	> 100 µM	> 100	> 100 µM	> 100 µM	–	> 100	> 100 µM	> 100 µM	> 100 µM	> 100	> 100	–	–	–	–	–	–	–
C=C1C(=O)O[C@H]2[C@H]1[C@@H](OC(=O)C=C(C)C)CC1=C[C@@H](C[C@@]3(C)O[C@@H]23)OC1=O	63 µM and 39.7 µM	10.2 µM and 5.83 µM	34.9	27 µM and 34.4 µM	50.2 µM and 9.4 µM	4.39 µM and 6.93 µM	77.4	32.1 µM and 49 µM	35.6 µM and 22.9 µM	17.6 µM and 30 µM	55.3	2.77	0.839	14.2	1.02 µM and 3.16 µM	0.603 µM and 2.59 µM	30	17.5 µM and 5.11 µM	13
C=CCn1c(=O)n(CC=C)c(=O)n(CC=C)c1=O	> 100 µM	> 100 µM	> 100	> 100 µM	> 100 µM	–	> 100	> 100 µM	> 100 µM	> 100 µM	> 100	> 100	–	–	–	–	–	–	–
COc1ccnc2c1C(=O)c1nc3ccccc3c3ccnc-2c13	2.02 µM	2.62 µM	1.52	0.704 µM	0.653 µM	0.298 µM	7.32	2.73 µM	–	4.11 µM	0.562	–	–	–	–	–	–	–	–
CN(C)C(=O)OCOC(=O)N(C)C	> 100 µM	> 100 µM	> 100	> 100 µM	> 100 µM	> 100 µM	> 100	> 100 µM	> 100 µM	> 100 µM	> 100	> 100	–	–	–	–	–	–	–
COC(=O)c1ccc(/C=C2\N=C(C)OC2=O)cc1	> 100 µM	> 100 µM	> 100	> 100 µM	> 100 µM	–	> 100	> 100 µM	> 100 µM	–	> 100	> 100	–	–	–	–	–	–	–
CCOC(=O)CC1CCN(C(=O)c2ccccc2)C2Cc3c([nH]c4ccccc34)C12C[N+](=O)[O-] (stereo not drawn)	–	> 100 µM	–	> 100 µM	> 100 µM	> 100 µM	> 100	> 100 µM	> 100 µM	> 100 µM	–	> 100	–	–	–	–	–	–	–
COC(=O)C1OC(Oc2cc(O)c3c(=O)cc(-c4ccc(O)cc4)oc3c2)C(O)C(O)C1O (stereo not drawn)	> 100 µM	> 100 µM	> 100	> 100 µM	> 100 µM	> 100 µM	> 100	> 100 µM	> 100 µM	> 100 µM	> 100	> 100	–	–	–	–	–	–	–
CO[C@H]1[C@@H](O)[C@@H](C)O[C@@H](O[C@H]2CC[C@@]3(C)[C@H](CC[C@@H]4[C@@H]3CC[C@]3(C)[C@@H](C5=CC(=O)OC5)[C@@H](OC(C)=O)C[C@]43O)C2)[C@@H]1O	0.0241 µM	0.0568 µM	0.824	0.772 µM	0.756 µM	> 50 µM	–	0.214 µM	0.0855 µM	0.345 µM	0.507	> 50	–	–	–	–	–	–	–
CC(=O)OCC1OC(Nc2ncc(-c3ccc(C)cc3)s2)C(OC(C)=O)C(OC(C)=O)C1OC(C)=O (stereo not drawn)	> 100 µM	> 100 µM	> 62.9	> 100 µM	> 100 µM	35.8 µM	65.3	> 100 µM	> 100 µM	> 78.2 µM	> 100	> 100	–	–	–	–	–	–	–
O=C1NC(=O)C(CCO)(c2ccccc2)C(=O)N1	> 100 µM	> 100 µM	> 100	> 100 µM	> 100 µM	> 100 µM	> 100	> 100 µM	> 100 µM	> 100 µM	> 100	> 100	–	–	–	–	–	–	–
O=C(CC(c1ccccc1)N1CCCCC1)c1ccccc1 (stereo not drawn)	41.3 µM	34.5 µM	15.6	29.1 µM	8.6 µM	15.4 µM	3.92	32.9 µM	33.4 µM	35.4 µM	36.1	18.7	–	–	–	–	–	–	–
O=c1c(-c2ccccc2)c(SCCCN2CCN(c3cccc(Cl)c3)CC2)n(-c2ccccc2)c(=S)n1-c1ccccc1	–	> 100 µM	> 100	> 100 µM	> 100 µM	> 100 µM	> 100	> 100 µM	–	> 100 µM	–	> 100	–	–	–	–	–	–	–
